How the values were obtained:
human DPP9 = molecular target: T1, human DPP9 (Homo sapiens, UniProt Q86TI2); experiment: Steady-state inhibition of isolated cloned DPP9 at 37°C (gly-pro-pNA); assay type: biochemical
T1 construct: made in house
Description: (§1) All solutions were preheated to 37°C. Inhibitors were preincubated with enzyme for 40 minutes prior to assay initiation. […] Softmax Pro software from Molecular Devices (Sunnyvale, CA) was used to obtain the initial slope of the reaction in each well, and the fits were inspected to insure that the reactions were linear to a correlation coefficient of 0.99. An Excel template with XLFit (IDBS, Guildford, U.K.) was used for determination of the IC50 for inhibition at each substrate concentration. […] Therefore, IC50 was then converted to Ki assuming competitive inhibition according to:
(§2) The calculated Ki values for competitive inhibition at each substrate concentration were averaged and reported. DPP8 and DPP9 were tested under identical conditions. The in vitro assays were also used to determine substrate Km, by varying substrate concentration across an appropriate range. Km was calculated using GraFit software (Erithacus, Surrey U.K.)

human DPP8 = molecular target: T2, human DPP8 (Homo sapiens, UniProt Q6V1X1); experiment: Steady-state inhibition of isolated cloned DPP8 at 37°C (gly-pro-pNA); assay type: biochemical
T2 construct: made in house
Description: as §1, §2

cynomolgus monkey DPP9 = cynomolgus monkey DPP9 (Macaca fascicularis, UniProt A0A2K5TQ54); experiment: Steady-state inhibition of isolated cloned DPP9 at 37°C (gly-pro-pNA); assay type: biochemical; settings: mean ± SD (n)
Description: (§3) All solutions were preheated to 37°C.
(§4) DPP8 and DPP9 were tested under identical conditions.

cynomolgus monkey DPP8 = cynomolgus monkey DPP8 (Macaca fascicularis, UniProt A0A2K5VHB7); experiment: Steady-state inhibition of isolated cloned DPP8 at 37°C (gly-pro-pNA); assay type: biochemical; settings: mean ± SD (n)
Description: as §3, §4

cynomolgus monkey DPP4 = molecular target: T3, cynomolgus monkey DPP4 (UniProt A0A075TEP6); experiment: Steady-state inhibition of isolated cloned DPP4 at 37°C (gly-pro-pNA); assay type: biochemical; settings: mean ± SD (n)
T3 construct: made in house
Description: as §3, §4

plasma DPP activity [1] = experiment: Cynomolgus monkey ex vivo plasma DPP inhibition, ala-pro-AFC assay; assay type: in vivo; settings: cynomolgus monkeys, single oral doses, 24 hours post dose
Description: (§5) Male and female cynomolgus monkeys (Charles River BRF, Houston, TX), were housed in an AAALAC-accredited facility (on a 12-hour light/dark cycle) in stainless-steel cages. They had access to purified tap water ad libitum and were fed Harlan Diet 2050 C (Certified 20% protein primate diet). […]. Doses were administered once weekly using a crossover design such that no monkeys received the same dose twice. For the ex vivo cynomolgus monkey assays, blood samples (approximately 0.5 ml) were collected prior to dosing and 1, 2, 4, 6, 8, and 24 hours post dosing in tubes containing K2EDTA. Tubes were inverted several times to ensure mixing, and placed on ice. Samples were centrifuged at 5000 rpm for 10 minutes at 4°C for plasma isolation. Plasma was stored at -20°C until analyzed for DPP activity. No difference in DPP inhibition was noted between males and females and so data were combined for analyses.
(§6) This procedure produced a 3-fold dilution of plasma.

[2] = molecular target: cynomolgus monkey plasma DPP activity (Macaca fascicularis, UniProt A0A2K5VXJ1); experiment: Ala-pro-AFC plasma DPP inhibition assay in vitro; assay type: biochemical
Text: as §6

plasma DPP activity [3] = experiment: Cynomolgus monkey ex vivo plasma DPP inhibition, gly-pro-pNA assay; assay type: in vivo; settings: cynomolgus monkeys, single oral doses, 24 hours post dose, same samples
Description: as §5
This assay was reported by Merck as used in their clinical trials, using gly-pro-pNA as substrate. […] Activity, the rate of release of free pNA from the pseudo-substrate, was assayed at 30°C, using a Spectramax 340 plate reader ([…]) with rate determining software. Absorbance at 390 nm was measured. Results were expressed as arbitrary units because standard pNA curves were not run for all experiments. The extent of DPP inhibition and IC50 values were calculated as described above.

[4] = human, 37°C, gly-pro-pNA, mean ± SD (n)

Chain of cynomolgus monkey DPP8 (A0A2K5VHB7 1-898): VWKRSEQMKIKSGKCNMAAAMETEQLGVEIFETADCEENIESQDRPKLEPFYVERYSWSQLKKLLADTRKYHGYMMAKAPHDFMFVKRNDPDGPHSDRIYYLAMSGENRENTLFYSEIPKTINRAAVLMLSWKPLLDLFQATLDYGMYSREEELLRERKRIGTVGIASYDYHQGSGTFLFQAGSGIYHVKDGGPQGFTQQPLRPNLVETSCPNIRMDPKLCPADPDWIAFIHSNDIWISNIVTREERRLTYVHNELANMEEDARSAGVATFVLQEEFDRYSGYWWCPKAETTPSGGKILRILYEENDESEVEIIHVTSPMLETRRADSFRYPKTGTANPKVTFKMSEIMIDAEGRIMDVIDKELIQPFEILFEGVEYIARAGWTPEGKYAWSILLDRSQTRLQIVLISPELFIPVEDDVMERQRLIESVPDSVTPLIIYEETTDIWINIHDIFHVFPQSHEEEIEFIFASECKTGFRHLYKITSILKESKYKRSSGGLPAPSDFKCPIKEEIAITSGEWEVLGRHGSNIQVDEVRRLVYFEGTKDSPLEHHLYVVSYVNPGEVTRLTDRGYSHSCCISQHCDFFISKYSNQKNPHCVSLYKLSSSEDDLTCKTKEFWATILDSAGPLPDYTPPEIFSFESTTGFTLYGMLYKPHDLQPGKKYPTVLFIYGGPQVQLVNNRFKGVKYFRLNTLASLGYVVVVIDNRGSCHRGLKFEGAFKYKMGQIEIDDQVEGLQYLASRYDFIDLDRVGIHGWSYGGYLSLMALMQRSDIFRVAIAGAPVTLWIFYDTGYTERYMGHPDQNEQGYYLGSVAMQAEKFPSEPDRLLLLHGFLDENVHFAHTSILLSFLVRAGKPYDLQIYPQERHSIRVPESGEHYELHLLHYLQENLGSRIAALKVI
Chain of cynomolgus monkey DPP9 (A0A2K5TQ54 156-951): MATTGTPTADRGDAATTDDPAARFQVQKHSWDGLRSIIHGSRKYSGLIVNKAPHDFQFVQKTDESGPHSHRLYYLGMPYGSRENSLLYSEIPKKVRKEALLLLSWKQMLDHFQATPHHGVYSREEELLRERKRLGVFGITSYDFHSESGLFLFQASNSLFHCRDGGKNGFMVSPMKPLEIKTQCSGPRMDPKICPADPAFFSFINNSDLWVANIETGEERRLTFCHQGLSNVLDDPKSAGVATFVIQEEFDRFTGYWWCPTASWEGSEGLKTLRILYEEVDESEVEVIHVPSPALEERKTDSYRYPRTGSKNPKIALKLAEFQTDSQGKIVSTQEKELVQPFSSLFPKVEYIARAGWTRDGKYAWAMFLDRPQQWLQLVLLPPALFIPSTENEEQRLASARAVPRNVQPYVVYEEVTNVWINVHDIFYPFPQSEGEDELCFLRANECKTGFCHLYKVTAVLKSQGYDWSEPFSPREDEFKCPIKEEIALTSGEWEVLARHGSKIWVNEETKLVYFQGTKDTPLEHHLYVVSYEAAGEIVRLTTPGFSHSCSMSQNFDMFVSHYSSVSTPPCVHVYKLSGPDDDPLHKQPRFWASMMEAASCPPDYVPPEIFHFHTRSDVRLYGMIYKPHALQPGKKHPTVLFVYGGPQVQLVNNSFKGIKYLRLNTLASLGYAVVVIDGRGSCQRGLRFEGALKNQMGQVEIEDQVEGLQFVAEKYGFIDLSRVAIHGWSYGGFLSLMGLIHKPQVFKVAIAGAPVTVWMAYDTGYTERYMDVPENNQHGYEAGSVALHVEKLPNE
T1 sequence (Q86TI2 whole entry): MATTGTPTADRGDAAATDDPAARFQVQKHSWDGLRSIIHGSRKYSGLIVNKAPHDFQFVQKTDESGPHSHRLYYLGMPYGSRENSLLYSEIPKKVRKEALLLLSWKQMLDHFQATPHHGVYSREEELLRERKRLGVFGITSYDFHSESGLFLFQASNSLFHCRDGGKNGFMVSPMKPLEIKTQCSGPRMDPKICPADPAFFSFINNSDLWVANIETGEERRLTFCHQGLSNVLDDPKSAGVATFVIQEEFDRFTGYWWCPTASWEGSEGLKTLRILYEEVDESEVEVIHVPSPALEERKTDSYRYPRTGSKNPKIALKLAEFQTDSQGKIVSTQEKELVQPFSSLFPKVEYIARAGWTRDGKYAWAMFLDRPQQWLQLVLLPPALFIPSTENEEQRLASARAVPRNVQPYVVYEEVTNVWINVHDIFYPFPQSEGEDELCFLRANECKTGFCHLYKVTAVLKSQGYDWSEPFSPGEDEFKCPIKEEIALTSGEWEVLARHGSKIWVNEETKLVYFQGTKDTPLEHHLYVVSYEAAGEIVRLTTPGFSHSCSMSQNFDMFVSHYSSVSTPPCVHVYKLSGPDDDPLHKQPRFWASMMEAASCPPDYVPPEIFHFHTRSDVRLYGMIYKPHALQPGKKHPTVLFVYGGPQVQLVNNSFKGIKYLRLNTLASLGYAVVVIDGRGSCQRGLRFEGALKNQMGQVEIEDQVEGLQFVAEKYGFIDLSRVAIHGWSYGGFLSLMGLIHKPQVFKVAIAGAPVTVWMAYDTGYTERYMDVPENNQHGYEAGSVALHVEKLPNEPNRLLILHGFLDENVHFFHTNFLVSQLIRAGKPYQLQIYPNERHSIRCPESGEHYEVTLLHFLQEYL
T2 sequence (Q6V1X1 whole entry): as the sequence (A0A2K5VHB7 1-898) above, with V1M, M357I, S605P, L609P, D823N counted along it
T3 sequence (A0A075TEP6 1-766): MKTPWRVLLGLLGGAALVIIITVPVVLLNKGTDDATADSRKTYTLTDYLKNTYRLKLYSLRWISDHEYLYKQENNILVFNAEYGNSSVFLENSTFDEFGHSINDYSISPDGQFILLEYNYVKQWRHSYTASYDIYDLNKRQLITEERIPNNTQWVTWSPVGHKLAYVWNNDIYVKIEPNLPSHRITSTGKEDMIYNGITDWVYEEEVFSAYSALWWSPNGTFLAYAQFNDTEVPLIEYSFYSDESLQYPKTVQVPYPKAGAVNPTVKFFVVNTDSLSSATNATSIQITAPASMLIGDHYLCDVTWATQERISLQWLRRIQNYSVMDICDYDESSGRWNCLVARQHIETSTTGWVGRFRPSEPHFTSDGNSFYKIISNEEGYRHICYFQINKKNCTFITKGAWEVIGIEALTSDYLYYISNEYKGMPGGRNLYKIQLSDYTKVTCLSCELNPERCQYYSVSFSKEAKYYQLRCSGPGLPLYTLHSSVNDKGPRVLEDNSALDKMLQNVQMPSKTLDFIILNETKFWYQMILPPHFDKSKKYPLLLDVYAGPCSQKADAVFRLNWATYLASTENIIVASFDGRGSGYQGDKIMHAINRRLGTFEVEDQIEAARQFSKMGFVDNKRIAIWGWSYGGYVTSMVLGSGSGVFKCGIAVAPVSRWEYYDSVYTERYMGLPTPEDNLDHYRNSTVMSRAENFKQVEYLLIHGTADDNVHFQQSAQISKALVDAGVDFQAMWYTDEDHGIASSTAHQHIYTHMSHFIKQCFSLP
Chain of cynomolgus monkey plasma DPP activity (A0A2K5VXJ1 39-766): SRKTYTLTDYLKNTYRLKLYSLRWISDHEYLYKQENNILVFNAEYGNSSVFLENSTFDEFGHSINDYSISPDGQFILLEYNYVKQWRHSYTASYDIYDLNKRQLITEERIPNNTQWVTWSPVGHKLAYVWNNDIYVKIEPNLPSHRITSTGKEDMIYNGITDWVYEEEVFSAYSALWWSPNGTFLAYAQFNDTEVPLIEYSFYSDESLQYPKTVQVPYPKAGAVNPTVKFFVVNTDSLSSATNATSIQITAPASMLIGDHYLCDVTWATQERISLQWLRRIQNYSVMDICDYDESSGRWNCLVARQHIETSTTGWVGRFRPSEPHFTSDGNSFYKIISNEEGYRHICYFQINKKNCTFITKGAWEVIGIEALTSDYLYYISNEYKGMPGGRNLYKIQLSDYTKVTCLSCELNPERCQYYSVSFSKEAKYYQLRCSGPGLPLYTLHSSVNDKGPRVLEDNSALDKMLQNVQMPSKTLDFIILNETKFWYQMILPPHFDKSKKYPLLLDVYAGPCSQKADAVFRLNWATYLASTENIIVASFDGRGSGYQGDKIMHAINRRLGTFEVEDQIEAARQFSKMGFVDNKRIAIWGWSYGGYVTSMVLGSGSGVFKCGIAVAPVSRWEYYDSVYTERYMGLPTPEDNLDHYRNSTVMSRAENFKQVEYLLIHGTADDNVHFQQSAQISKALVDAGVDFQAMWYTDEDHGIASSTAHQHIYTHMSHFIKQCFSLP

Structure (SMILES) | slow binding kinetics to DPP9 (human DPP9) | Ki (human DPP9; [4]) [nM] | slow binding kinetics to DPP8 (human DPP8) | Ki (human DPP8; [4]) [nM] | Ki (cynomolgus monkey DPP9) [nM] | Ki (cynomolgus monkey DPP8) [nM] | Ki (cynomolgus monkey DPP4) [nM] | plasma DPP inhibition ex vivo (plasma DPP activity [1]) | increase of IC50 in the ala-pro-AFC assay compared to the gly-pro-pNA assay [2] [fold] | plasma DPP inhibition ex vivo (plasma DPP activity [3])
N#C[C@@H]1C[C@@H]2C[C@@H]2N1C(=O)[C@@H](N)C12CC3CC(O)(CC(O)(C3)C1)C2 [5-hydroxysaxagliptin] | Neither saxagliptin nor 5-hydroxysaxagliptin exhibited slow binding kinetics | 423 ± 64 | Neither saxagliptin nor 5-hydroxysaxagliptin exhibited slow binding kinetics | 2500 ± 727 | 323 ± 60 | 2060 ± 658 | 2.9 ± 1.1 |  |  | 
N#C[C@@H]1C[C@@H]2C[C@@H]2N1C(=O)[C@@H](N)C12CC3CC(CC(O)(C3)C1)C2 [Saxagliptin, (1 S,3 S,5 S)-2-[(2 S)-2-Amino-2-(3-hydroxytricyclo[3.3.1.1^3,7]dec-1-yl)acetyl]-2-azabicyclo[3.1.0]hexane-3-carbonitrile, monohydrate] |  |  |  |  | 61 ± 5 | 390 ± 82 |  | close to maximal inhibition of the inhibitable plasma DPP activity at its highest doses |  | 
N[C@@H](CC(=O)N1CCn2c(nnc2C(F)(F)F)C1)Cc1cc(F)c(F)cc1F [Sitagliptin, reference compound] |  |  |  |  | 65800 ± 7970 | 21900 ± 17500 |  | no effect on plasma DPP activity at any of the doses | 26 | statistically significant inhibition of plasma DPP activity at 3, 10 and 40 mg/kg doses
N#C[C@@H]1CCCN1C(=O)CNC12CC3CC(CC(O)(C3)C1)C2 [Vildagliptin, reference compound] |  |  |  |  | 125 ± 39 |  |  |  |  | 

— publication PMC3373380 (BMC Pharmacology, 2012)
